# Laboratory results as given in ChEMBL document CHEMBL3132824, “Discovery of novel pyridazinylthioacetamides as potent HIV-1 NNRTIs using a structure-based bioisosterism approach” (Medchemcomm, 2013).
# Assays:
# [1] = Cytotoxicity against HIV-2 ROD mock-infected human MT4 cells assessed as reduction in cell viability by MTT assay; format: cell-based; conditions: HIV-2 ROD mock-infected MT4 cells
# [2] = Selectivity ratio of CC50 for HIV-1 3B mock-infected human MT4 cells to EC50 for HIV-1 3B infected in human MT4 cells; format: ADME, cell-based; conditions: read-out: Ratio CC50/EC50
# [3] = test system: Human immunodeficiency virus 2; assay: Antiviral activity against HIV-2 ROD infected in human MT4 cells assessed as inhibition of virus-induced cytopathicity by MTT assay; format: functional, organism-based; conditions: Human immunodeficiency virus 2, ISOLATE ROD
# [4] = Cytotoxicity against HIV-1 3B mock-infected human MT4 cells assessed as reduction in cell viability by MTT assay; format: cell-based; conditions: HIV-1 3B mock-infected MT4 cells
# [5] = test system: Human immunodeficiency virus 1; assay: Antiviral activity against HIV-1 3B infected in human MT4 cells assessed as inhibition of virus-induced cytopathicity by MTT assay; format: functional, organism-based; conditions: Human immunodeficiency virus 1, 3B
# [6] = Selectivity ratio of CC50 for HIV-2 ROD mock-infected human MT4 cells to EC50 for HIV-2 ROD infected in human MT4 cells; format: ADME, cell-based; conditions: read-out: Ratio CC50/EC50
# [7] = biological target: Human immunodeficiency virus type 1 reverse transcriptase (Human immunodeficiency virus 1, UniProt Q72547); assay: Inhibition of purified recombinant HIV-1 reverse transcriptase assessed as inhibition of biotin-dUTP incorporation using poly(rC)-oligo(dG) as template primer
Structure (SMILES),CC50 [1] [µM],selectivity ratio [2],EC50 [3] [µM],CC50 [4] [µM],EC50 [5] [µM],selectivity ratio [6],IC50 [7] [µM]
O=C(CSc1nnccc1-c1cccc2ccccc12)Nc1cccnc1Cl,164,573,> 164,156,0.27,< 1,–
Cc1cn([C@H]2C[C@H](N=[N+]=[N-])[C@@H](CO)O2)c(=O)[nH]c1=O [ZIDOVUDINE],–,12200,0.0045,–,0.021,56900,–
CCOC(=O)c1ccc(NC(=O)CSc2nnccc2-c2cccc3ccccc23)c(Br)c1,> 239,420,> 239,237,0.56,< 1,–
COC(=O)c1ccc(NC(=O)CSc2nnccc2-c2cccc3ccccc23)c(Br)c1,> 246,1110,> 246,159,0.14,< 1,–
O=C(CSc1nnccc1-c1cccc2ccccc12)N1CCc2ccccc2C1,36.5,29,> 36.5,34,1.15,< 1,–
O=C(CSc1nnccc1-c1cccc2ccccc12)Nc1ccccc1F,241,799,> 241,204,0.26,< 1,–
Cc1ccc(NC(=O)CSc2nnccc2-c2cccc3ccccc23)c(Br)c1,215,929,> 215,182,0.2,< 1,–
Cc1ccnc2c1NC(=O)c1cccnc1N2C1CC1 [NEVIRAPINE],> 15,–,–,> 15,–,–,–
O=C(CSc1nnccc1-c1cccc2ccccc12)Nc1ccccc1Cl,35,177,> 35,34.2,0.19,< 1,–
O=C(CSc1nnccc1-c1cccc2ccccc12)N1CCCc2ccccc21,35,< 1,> 35,34.5,> 34.5,< 1,–
O=C(CSc1nnccc1-c1cccc2ccccc12)Nc1ccccc1[N+](=O)[O-],135,2150,> 135,99.9,0.046,< 1,4.06
O=C1Nc2ccc(Cl)cc2[C@@](C#CC2CC2)(C(F)(F)F)O1 [EFAVIRENZ],> 6.34,> 1190,–,> 6.34,–,–,–
O=C(CSc1nnccc1-c1cccc2ccccc12)c1ccc(Cl)cc1Cl,55,10,> 55,54.6,5.46,< 1,–
O=C(CSc1nnccc1-c1cccc2ccccc12)Nc1ccccc1Br,31.3,151,> 31.3,31.5,0.21,< 1,–
Cc1ccccc1NC(=O)CSc1nnccc1-c1cccc2ccccc12,150,130,> 150,142,1.09,< 1,–
Nc1ccn([C@H]2CC[C@@H](CO)O2)c(=O)n1 [ZALCITABINE],> 94.7,> 93,1.28,> 94.7,–,> 74,–
Cc1ccc(NC(=O)CSc2nnccc2-c2cccc3ccccc23)c([N+](=O)[O-])c1,244,1440,> 244,204,0.14,< 1,–
O=C(CSc1nnccc1-c1cccc2ccccc12)Nc1ccc(Cl)cc1Cl,232,> 684,> 232,> 284,0.42,< 1,–
CC(=O)c1ccc(NC(=O)CSc2nnccc2-c2cccc3ccccc23)c(Br)c1,48.5,370,> 48.5,46.3,0.13,< 1,–
O=C(CSc1nnccc1-c1cccc2ccccc12)Nc1ccccc1,174,105,> 174,203,1.93,< 1,–
CC(C)Nc1cccnc1N1CCN(C(=O)c2cc3cc(NS(C)(=O)=O)ccc3[nH]2)CC1 [DELAVIRDINE],> 36.2,> 1100,–,> 36.2,–,–,–
